Here are results for 1 molecule from patent US20240140949A1, “ANTI-CANCER PHARMACEUTICAL COMPOSITION FOR TARGETING HEAT SHOCK PROTEIN 70, CONTAINING INDOLOQUINAZOLIDINE ALKALOID” (SEOUL NATIONAL UNIVERSITY R & DB FOUNDATION, priority 2021, published 2024).

One test has as its system lung cancer cell. The experiment in a line: Cancer cell survival inhibitory activity (MTT assay) of EV501 to EV509. The following applies: 0.5 μM (lowest concentration), MTT assay (FIG. 18). The test is classed as cell-based. As to the method: (§1) The cancer cell lines were seeded in a 96-well plate at a density of 2×10^3 cells per well and cultured for 24 hours to allow the cells to attach. The cells were then treated with diluted drugs in media for 3 days and cell viability was assessed using MTT assay or crystal violet (CB) assay. For the MTT assay, MTT solution dissolved in PBS was added to achieve a final concentration of 500 μg/mL and incubated for 2-4 hours, after which the medium was removed and the formed formazan was dissolved in 100% DMSO, followed by measuring the absorbance at 570 nm. For the CB assay, the cultured cells were fixed with 100% methanol, stained with a 0.025% crystal violet solution, dissolved in 1% SDS solution, and the absorbance was measured at 570 nm. Cell viability was calculated as the percentage of absorbance change in drug-treated group compared to vehicle (DMSO) treated control group.

A further test relates to LLC-Luc tumors. The experiment in a line: Survival in LLC-Luc transplant allograft (lung metastasis) model. The test is classed as in vivo, mouse. The following applies: C57BL/6 mice, 20 mg/kg orally six times a week (FIG. 8). Here is the method:
H460 cells (5×10^6 cells/spot) or lung cancer patient-derived tumors were implanted into the flank of 6-week-old NOD/SCID mice, or LLC-Luc cells (5×10^5 cells/spot) were implanted into the flank of 8-week-old C57BL/6 mice to form tumors. When the tumor volume reached 50-100 mm^3, the mice were divided into control and experimental groups (with at least 6 mice assigned to each group), and the control group was administered with vehicle (10% DMSO and 40% PEG400 solution prepared in sterile distilled water), while the experimental group was administered with EV507 (20 mg/kg) six times a week orally. The major and minor axes of the tumor were measured, and the tumor size was measured at least 3-4 times a week, and the body weight was measured at least once a week to evaluate the toxicity of the drug. Also, the survival of C57BL/6 mice implanted with LLC-Luc cells was monitored to determine the survival curve. The tumor volume was calculated as (width)^2× length×0.5.
Moreover, it is known that in the LLC-Luc transplant allograft model that spontaneously generates pulmonary metastatic cancer, mouse mortality occurs due to the proliferation of transplanted LLC-Luc tumors and the formation of pulmonary metastatic cancer. In this allograft model, EV507 was administered to confirm its inhibitory effect on mouse mortality caused by tumor proliferation.

The next test has as its system lung cancer cells. Description: Anchorage-independent (soft agar) colony formation. The test is classed as cell-based. The settings on record: soft agar (FIG. 20). Here is the method:
Before the experiment, a 1% agar solution made with low-melting agar was placed in a 24-well plate and hardened at room temperature to create a bottom agar. The cells were diluted with medium to seed 2×10^3 cells per well in a 24-well plate. Then, it was mixed with a 1% agar solution to create a final 0.4% agar solution, which was then solidified at room temperature in the plate containing the bottom agar. Medium containing the drug was added on top of the cells mixed in the agar and cultured for 1-3 weeks at 37° C. in a 5% CO2 condition, after which the formed colonies were stained with an MTT solution of 250-500 μg/mL and counted. The colony formation inhibitory effect of the drug was calculated by expressing the change in colony numbers in the drug-treated group compared to the vehicle (DMSO) treated control group as a percentage.

For the next test, the system named is H1299 lung cancer cells. Description: Cell viability (MTT assay) in H1299 cells. The test is classed as cell-based, human. The following applies: 100 nM, 3 days, MTT, compared with evodiamine and EV501-EV509 (FIG. 1).
Description: (§2) Human lung cancer cell lines (H1299, H460, A549, H226B, and PC9), breast cancer cell line (MDA-MB-231), liver cancer cell line (Hep3B), kidney cancer cell line (786-0), prostate cancer cell lines (DU145 and PC-3), and mouse lung cancer cell line (Lewis Lung Carcinoma, LLC) were purchased from ATCC (American Type Culture Collection) or obtained from Dr. John V. Heymach of MD Anderson Cancer Center, USA. The human head and neck cancer cell line (UMSCC38) was obtained from Dr. Jeffrey N. Myers (MD Anderson Cancer Center, USA). Human colon cancer cell lines (HCT116 and HT-29) and glioblastoma cell line (U87MG) were obtained from Professor Sang Kook Lee (Seoul National University College of Pharmacy). The human kidney cancer cell line (Caki-1), and gastric cancer cell line (SNU-638) were purchased from the Korean Cell Line Bank. The chemotherapy-resistant cells [paclitaxel-resistant H460 cells (H460/PcR), paclitaxel-resistant H226B cells (H226B/PcR), cisplatin-resistant H1299 cells (H1299/CsR), pemetrexed-resistant H1299 cells (H1299/PmR)] and molecularly targeted anticancer therapy-resistant cells [erlotinib-resistant PC9 cells (PC9/ER)] were constructed by treating the respective anti-cancer drugs for more than three months. H1299, H460, H226B, PC9, Hep3B, 786-0, DU145, PC-3, HCT116, HT-29, SNU-638, chemotherapeutic resistant cells, and molecularly targeted anticancer therapy-resistant cells were cultured in RPMI 1640 media containing 10% fetal bovine serum (FBS) and antibiotics at 37° C. under 5% CO2 conditions, while MDA-MB-231, UMSCC38, U87MG, Caki-1 were cultured in DMEM media containing 10% FBS and antibiotics at 37° C. under 5% CO2 conditions. Cells were passaged 1-2 times per week.
as §1

Test [1] deals with Hsp70 protein and Hsp70/Hsp90 client proteins (Akt, Src, and MEK). The experiment in a line: Western blot of Hsp70 and client proteins in lung cancer cells. The test is classed as cell-based, human.
Description: as §2
The cells treated with the drug were treated with RIPA lysis buffer [50 mM Tris-HCl (pH 7.4), 150 mM NaCl, 1 mM EDTA, 0.25% sodium deoxycholate, 1% Triton X-100, 100 mM NaF, 5 mM Na3VO4, 1 mM PMSF, 1 μg/mL aprotinin, 1 μg/mL leupeptin, and 1 μg/mL pepstatin], followed by incubation on ice for 10 minutes and centrifugation at 13,000 rpm for 15 minutes to extract proteins. The proteins were quantified by BCA assay and equal amounts of proteins were separated by 8-10% SDS-PAGE. The separated proteins were transferred to a PVDF membrane, and the areas of the membrane not transferred with protein were blocked by incubating the membrane in 5% skim milk solution or 3% BSA solution diluted in TBST at room temperature for 1 hour. The membrane was then incubated in a primary antibody solution diluted 1:1,000 in 3% BSA at 4° C. for more than 12 hours. The primary antibody used was either anti-Hsp70 or anti-actin, with the anti-Hsp70 antibody obtained from Enzo Life Science and the actin antibody obtained from Santa Cruz Biotechnology. After incubation, the membrane was washed for 1 hour while changing TBST several times, and then incubated for 1 hour at room temperature with a secondary antibody (GeneTex) diluted 1:5,000 in 5% skim milk solution. After incubation, the membrane was washed for 1 hour while changing TBST several times, and then treated with an enhanced chemiluminescence (ECL) solution. The expression of Hsp70 or Actin protein was detected using LAS4000.

In the test on lung cancer cell, `C=CCN1c2ccccc2C(=O)N2CCc3c([nH]c4ccc(O)cc34)C21` (stereo not drawn) [EV507] registered an inhibition at 0.5 µM of over 65%. Further, in the test with LLC-Luc tumors, the mouse mortality entry was “significantly reduced”. Also, the anchorage-independent colony formation entry in the test with lung cancer cells was “effectively inhibited”. Moreover, the “inhibition of cancer cell survival (cell viability)” value in the test with H1299 lung cancer cells is “most excellent efficacy”. Also, the “expression of Hsp70 protein and Hsp70/Hsp90 client proteins (Akt, Src, and MEK)” value in test [1] (H1299, H460, A549, H226B lung cancer cell lines (FIG. 4)) was “clear reduction”. Besides, the “expression of Hsp70 and Src and Akt (client proteins of Hsp70/Hsp90)” value in test [1] (Western blot (FIG. 21)) is “decrease”.
